According to US8889876B2, “Histone deacetylase inhibitors and uses thereof” (Jiangsu Hengyi Pharmaceutical Co., Ltd., priority 2008, dated 2014):

Key:
histone deacetylase = experiment: in vitro inhibition of histone deacetylase by HDAC inhibitor screening kit (Biovision K340-100); type: biochemical
Procedure: An assay for determining the in vitro inhibition activity of the compound on histone deacetylase is conducted according to the specification of HDAC inhibitor screeing kid (Biovision Company/Catalog #K340-100). […]

[1] = system: Hut78 T-cell Leukemia cell; experiment: CCK-8 proliferation inhibition, Hut78; type: cell-based; details: for inhibition at 10 µM / inhibition at 100 µM: Homo sapiens, read-out: Hut-78 (inhibition %); for inhibition at 10 µM: HuT78, 10 μM; for inhibition at 100 µM: HuT78, 100 μM
In short: (§1)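 Percent inhibition at 100 μM and 10 μM compound; CCK-8 readout.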

[2] = system: PANC-1 human pancreatic cancer cells; experiment: CCK-8 proliferation inhibition, PANC-1; type: cell-based; details: for inhibition at 10 µM / inhibition at 100 µM: Homo sapiens; for inhibition at 10 µM: PANC-1, 10 μM; for inhibition at 100 µM: PANC-1, 100 μM
In short: as §1

[3] = system: Jurkat E6-1 human T-cell lymphoma; experiment: CCK-8 proliferation inhibition, Jurkat E6-1; type: cell-based; details: for inhibition at 10 µM / inhibition at 100 µM: Homo sapiens; for inhibition at 10 µM: Jurkat E6.1, 10 μM; for inhibition at 100 µM: Jurkat E6.1, 100 μM
In short: as §1

[4] = system: K562 human chronic myeloid leukemia cells; experiment: CCK-8 proliferation inhibition, K562; type: cell-based; details: for inhibition at 10 µM / inhibition at 100 µM: Homo sapiens; for inhibition at 10 µM: K562, 10 μM; for inhibition at 100 µM: K562, 100 μM
In short: as §1

[5] = system: A549 human lung cancer cells; experiment: CCK-8 proliferation inhibition, A549; type: cell-based; details: CCK-8 method; for inhibition at 10 µM / inhibition at 100 µM: Homo sapiens, A549
In short: as §1

[6] = system: MDA-MB-435s human breast cancer cells; experiment: CCK-8 proliferation inhibition, MDA-MB-435s; type: cell-based; details: CCK-8 method; for inhibition at 10 µM / inhibition at 100 µM: Homo sapiens, MDA-MB-435S
In short: as §1

[7] = system: Hep3B2.1-7 human liver cancer cells; experiment: CCK-8 proliferation inhibition, Hep3B2.1-7; type: cell-based; details: CCK-8 method; for inhibition at 10 µM / inhibition at 100 µM: Homo sapiens, Hep3B
In short: as §1

[8] = system: PC-3 human prostate cancer; experiment: CCK-8 proliferation inhibition, PC-3; type: cell-based; details: CCK-8 method; for inhibition at 10 µM / inhibition at 100 µM: Homo sapiens
In short: as §1

[9] = system: Colo320 human rectal cancer cells; experiment: CCK-8 proliferation inhibition, Colo320; type: cell-based; details: CCK-8 method; for inhibition at 10 µM / inhibition at 100 µM: Homo sapiens, COLO 320
In short: as §1

Compound | Inhibition rate(%) (histone deacetylase; 3.91 μM) | Inhibition rate(%) (histone deacetylase; 62.5 μM) | Inhibition rate(%) (histone deacetylase; 2 mM) | inhibition at 10 µM [1] [%] | inhibition at 100 µM [1] [%] | inhibition at 10 µM [2] [%] | inhibition at 100 µM [2] [%] | inhibition at 10 µM [3] [%] | inhibition at 100 µM [3] [%] | inhibition at 10 µM [4] [%] | inhibition at 100 µM [4] [%] | inhibition at 10 µM ([5]; compound concentration 10 μM) [%] | inhibition at 100 µM ([5]; compound concentration 100 μM) [%] | inhibition at 10 µM ([6]; compound concentration 10 μM) [%] | inhibition at 100 µM ([6]; compound concentration 100 μM) [%] | inhibition at 10 µM ([7]; compound concentration 10 μM) [%] | inhibition at 100 µM ([7]; compound concentration 100 μM) [%] | inhibition at 10 µM ([8]; compound concentration 10 μM) [%] | inhibition at 100 µM ([8]; compound concentration 100 μM) [%] | inhibition at 10 µM ([9]; compound concentration 10 μM) [%] | also measured
COc1cccc(/C=C/C(=O)NCc2ccc(C(=O)Nc3ccncc3N)cc2)c1 [V-92] | 24.0 | 56.1 | 65.7 | 46.2 | 78.5 | 6.3 | 33.3 | 87.5 | 95.5 | 68.7 | 91.1 | 2.2 | 54.2 | 23.7 | 77.7 | 20.2 | 80.5 | 41 | 73.8 | 6 | inhibition at 100 µM ([9]; compound concentration 100 μM): 65.5%
COc1ccc(/C=C/C(=O)NCc2ccc(C(=O)Nc3cccnc3N)cc2)cc1OC [V-93, N-(2-amino-3-pyridyl)-4-[(3,4-dimethoxycinnamoyl)aminomethyl]benzamide] | 14.3 | 48.0 | 55.3 | 27.2 | 64.7 | 9.8 | 16.6 | 23.4 | 93.1 | 23.7 | 67.3 | -2.5 | 3.4 | 16.3 | 48.5 | 4.9 | 26.8 | 41.6 | 80.6 | 6.1 | inhibition at 100 µM ([9]; compound concentration 100 μM): 13.1%
COc1cccc(COC(=O)NCc2ccc(C(=O)Nc3ccncc3N)cc2)c1 [V-95] | 17.2 | 46.7 | 90.6 | 8 | 58 | 7 | 48.7 | 21.6 | 93.8 | 50.6 | 71.9 | -12.6 | 48.3 | 4.2 | 72.5 | 16.7 | 72 | 30.6 | 80 | -1.9 | inhibition at 100 µM ([9]; compound concentration 100 μM): 68.8%
COc1ccc(COC(=O)NCc2ccc(C(=O)Nc3ccncc3N)cc2)cc1OC [V-96] | 14.0 | 42.2 | 85.0 | -0.4 | 41.7 | -0.4 | 64.8 | 15.4 | 83.4 | 41.1 | 61.6 | -6.2 | 33.4 | 1.9 | 69.6 | -0.9 | 35.2 | 27.8 | 53.3 | -0.8 | inhibition at 100 µM ([9]; compound concentration 100 μM): 27%
N-(2-amino-3-pyridyl)-4-[(4-methoxybenzyloxyacyl)aminomethyl]benzamide [V-11] | 6.5 | 22.1 | 39.2 | – | – | – | – | – | – | – | – | – | – | – | – | – | – | – | – | – | Hut-78 (inhibition %) ([1]; 10 μM): 10.7%; Hut-78 (inhibition %) ([1]; 100 μM): 60.3%; PANC-1 (inhibition %) ([2]; 10 μM): 1.1%; PANC-1 (inhibition %) ([2]; 100 μM): 35.2%; Jurkat E6-1 (inhibition %) ([3]; 10 μM): 26.4%; Jurkat E6-1 (inhibition %) ([3]; 100 μM): 91.0%; K562 (inhibition %) ([4]; 10 μM): 29.7%; K562 (inhibition %) ([4]; 100 μM): 82.6%; A549 (inhibition %) ([5]; compound concentration 10 μM): −7.4%; A549 (inhibition %) ([5]; compound concentration 100 μM): 24.9%; 435s(inhibition %) ([6]; compound concentration 10 μM): −16.5%; 435s(inhibition %) ([6]; compound concentration 100 μM): 85.4%; Hep3B (inhibition %) ([7]; compound concentration 10 μM): 8.1%; Hep3B (inhibition %) ([7]; compound concentration 100 μM): 53.2%; PC-3 (inhibition %) ([8]; compound concentration 10 μM): 8.1%; PC-3 (inhibition %) ([8]; compound concentration 100 μM): 49.8%; Colo320 (inhibition %) ([9]; compound concentration 10 μM): 8.9%; Colo320 (inhibition %) ([9]; compound concentration 100 μM): 48.5%
